Assay results published in publication PMC8623398, “Investigation of the Mechanisms of Cytotoxic Activity of 1,3-Disubstituted Thiourea Derivatives” (Pharmaceuticals, 2021).

Columns and labels:
SW620 cells [1] = experiment: MTT assay, SW620; type: cell-based, human; conditions: Homo sapiens, SW-620, 72 h, 50% growth inhibition
Method: (§1) As a first step in assessing their cytotoxic properties, all thioureas of the series were assayed against four human carcinoma cell lines, such as SW480 (primary colon cancer), SW620 (metastatic colon cancer), PC3 (metastatic prostate cancer), and K-562 (chronic myelogenous leukemia), as well as against the normal cell line HaCaT (immortalized human keratinocytes). Table 1 lists the compound concentrations that produced 50% of growth inhibition (IC50, μM), generated by the MTT method, in comparison with two commonly used chemotherapeutic agents, doxorubicin and cisplatin.
(§2) The human primary (SW480), metastatic (SW620) colon cancer, metastatic prostate cancer (PC3), chronic myelogenous leukemia (K-562), and human immortal keratinocyte (HaCaT) cell lines were purchased from the American Type Culture Collection (ATCC, Rockville, MD, USA). The cells were cultured in medium according to protocols (MEM for SW480 and SW620, RPMI 1640 for PC3 and K-562, and DMEM for HaCaT cells), supplemented with 10% FBS, penicillin (100 U/mL) and streptomycin (100 μg/mL), and cultured in a 37 °C/5% CO2 humidified incubator. The cells were cultured until appropriate confluence was achieved (80–90%). Next, they were harvested by treatment with 0.25% trypsin (Gibco Life Technologies, Waltham, MA, USA) excluding the non-adherent K-562 cell line and used for studies.
(§3) Cells without the studied compounds in medium were used as a control.
(§4) The cell viability was assessed by determination of MTT salt [3-(4,5-dimethylthiazol-2-yl)-2,5-diphenyltetrazoliumbromide] conversion by mitochondrial dehydrogenase. The MTT assay was performed as previously described. Alternatively, non-adherent leukemic cells were centrifuged in a microplate centrifuge (400× g, 5 min) during the collection stages. Experiments were repeated three times. Cell viability was presented as a percent of MTT reduction in the treated cells versus the control cells. The number of viable cells cultured without the studied compounds was assumed as 100%. A decreased relative MTT level indicated decreased cell viability. Thiourea compounds with the highest cytotoxic potential assessed by MTT determination (with the lowest IC50) were chosen for subsequent assessments of cytotoxicity mechanisms.

PC3 cells [2] = experiment: MTT assay, PC3; type: cell-based; conditions: Homo sapiens, PC-3, 72 h, 50% growth inhibition
Method: as §1, §2, §3, §4

K-562 cells = experiment: MTT assay, K562; type: cell-based, human; conditions: 50% growth inhibition
Method: as §1, §2, §3, §4

HaCaT cells = experiment: MTT assay, HaCaT normal cells; type: cell-based, human; conditions: Homo sapiens, HaCaT, 72 h
Method: as §1, §2, §3, §4

SW620 cells [3] = experiment: Trypan blue assay, SW620; type: cell-based, human; conditions: SW620, 72 h; for Cell Number × 10^5 / Viability (%): compound at IC50 concentration; for reduction in live cell number: vs control
Method: (§5) In order to estimate the tumor and normal cell population density and their viability after treatment with compounds 1–3, 8, and 9, the trypan blue dye exclusion assay was performed. The live cell number of all cancerous cells incubated for 72 h with the studied thioureas was considerably lower in comparison with the controls (Table 2; Figure S1A). The highest reduction in cell amount was denoted for both colon SW480 and SW620 cells treated with the dichlorophenyl derivative 2, and it accounted for 93%. […] Similarly, a noticeable decline in both colon cancer cell populations was observed after treatment with the ortho-substituted compound 8. The number of live cells equaled 12% and 18%, respectively, as compared to controls. This thiourea also led to a reduction of PC3 cells of 38%, and leukemia K-562 cell lines of 27%. The number of SW620 and PC3 cells decreased by 72% and 63% in the presence of para-substituted compound 9. However, the reducing influence of this thiourea on the number of other cancerous cells was at the level of 21–32%. […] A significant effect on the other studied pathological cells was also noticed and accounted for 32–46%. Furthermore, the derivative 3 reduced the amount of live cancer cells by 32–59%, of which its decreasing impact on colon cancer cells was the greatest.
(§6) The live cell count was assessed by the trypan blue exclusion dye assay using an automated cell counter (CountessTM Invitrogen, Waltham, MA, USA). Untreated cells were used as the control.

PC3 cells [4] = experiment: Trypan blue assay, PC3; type: cell-based, human; conditions: PC3, 72 h; for Cell Number × 10^5 / Viability (%): compound at IC50 concentration; for reduction in live cell number: IC50 concentration, vs control
Method: as §5, §6

SW620 cells [5] = experiment: Annexin V-FITC/PI flow cytometry, SW620; type: cell-based, human; conditions: SW620, 72 h, IC50 concentration
Method: (§7) To estimate the mechanism of anticancer activity of the selected compounds 1–3, 8, and 9, their effect on both early and late apoptosis was evaluated by flow cytometry analysis. […] Additionally, visible late apoptosis-inducing properties in these cell lines were denoted for the compound 9 (47% ± 3.0%), which was twice as strong towards the colon tumor cells mentioned above. The apoptotic properties of analogs 3 and 8 in K-562 cells varied from 30% ± 1.6% to 33% ± 2.3%. […] Whereas the apoptosis-generating influence of derivatives 2 and 3 on normal keratinocytes was higher (29% and 23%), their selectivity measured by MTT methods is favorable. The obtained results are in agreement with the IC50 values assigned to pathological cancer cell lines. The cells were cultured and harvested under the conditions described in Section 3.2.1. […] The effect of these compounds on the process of early and late apoptosis and necrosis was determined as described previously by dual staining with Annexin V:FITC and propidium iodide, according to the manufacturer’s protocol (Becton Dickinson). The cells that were Annexin V:FITC positive and PI negative were identified as early apoptotic, and Annexin V:FITC and PI positive as late apoptotic or necrotic.

[6] = Annexin V-FITC/PI flow cytometry, HaCaT; type: cell-based, human; design: viability at 72 h: concentration or dose not given beside the values; conditions: human, HaCaT cells (normal keratinocytes), representative dot plot, Figure 4E, read-out: LL quadrant, viable cells
Method: as §7

[7] = test system: SW480, SW620, PC3, K-562 cells; experiment: MTT assay, summary over cancer cell lines; type: cell-based; conditions: Homo sapiens, 72 h, depending on the tumor line, read-out: IC50 (range or bound over cancer cell lines)
Method: as §1, §3, §4

SMILES | IC50 (SW620 cells [1]) | IC50 (PC3 cells [2]) | IC50 (K-562 cells; Homo sapiens, K562, 72 h) | IC50 (HaCaT cells) | Cell Number × 10^5 (SW620 cells [3]) | Viability (%) (SW620 cells [3]) | Cell Number × 10^5 (PC3 cells [4]) | Viability (%) (PC3 cells [4]) | cells in late apoptosis (SW620 cells [5]) | viability at 72 h [6] | IC50 [7] | IC50 (K-562 cells; 72 h) | reduction in live cell number (SW620 cells [3]; IC50 concentration) | reduction in live cell number (PC3 cells [4]) | decrease of cell viability (SW620 cells [3]; IC50 concentration) | number of live cells as compared to controls (SW620 cells [3]; IC50 concentration)
FC(F)(F)c1cccc(NC(S)=Nc2ccc(Cl)cc2Cl)c1 [Compound 3, 1-(2,4-dichlorophenyl)-3-[3-(trifluoromethyl)phenyl]thiourea] | 5.8 ± 0.76 µM | 13.7 ± 7.04 µM | 54.3 ± 1.86 µM | 52.1 ± 0.95 µM | 2.4 ± 0.20 × 10^5 | 93 ± 2.33% | 1.8 ± 0.18 × 10^5 | 58 ± 1.20% | ≤ 26% | 65.7% | ≤ 10 µM | – | – | – | – | –
FC(F)(F)c1cccc(NC(=S)Nc2ccc(Cl)cc2)c1 [Compound 9, 1-(4-chlorophenyl)-3-[3-(trifluoromethyl)phenyl]thiourea] | 6.7 ± 1.74 µM | 22.6 ± 1.25 µM | 10.2 to 12.9 µM | 71.5 ± 3.08 µM | 1.6 ± 0.11 × 10^5 | 84 ± 3.08% | 1.2 ± 0.15 × 10^5 | 73 ± 1.99% | ≤ 26% | 79.5% | ≤ 10 µM | 10.2 ± 0.35 µM | 72% | 63% | – | –
FC(F)(F)c1cccc(NC(=S)Nc2ccc(Cl)c(Cl)c2)c1 [Compound 2, 1-(3,4-dichlorophenyl)-3-[3-(trifluoromethyl)phenyl]thiourea] | 1.5 ± 0.72 µM | 31.7 ± 2.07 µM | 6.3 ± 1.28 µM | 24.7 ± 0.05 µM | 0.4 ± 0.22 × 10^5 | 42 ± 1.30% | 2.4 ± 0.16 × 10^5 | 93 ± 1.40% | 99% ± 0.5% | 57.6% | – | – | 93% | 69% | – | –
Fc1ccc(NC(=S)Nc2cccc(C(F)(F)F)c2)cc1Cl [Compound 1, 1-(3-chloro-4-fluorophenyl)-3-[3-(trifluoromethyl)phenyl]thiourea] | 9.4 ± 1.85 µM | 53.6 ± 2.94 µM | 6.8 ± 1.57 µM | 43.6 ± 4.22 µM | 1.3 ± 0.25 × 10^5 | 79 ± 1.30% | 2.3 ± 0.15 × 10^5 | 93 ± 1.50% | 57% ± 1.2% | 78.2% | ≤ 10 µM | – | – | – | – | –
FC(F)(F)c1ccc(NC(=S)Nc2cccc(C(F)(F)F)c2)cc1 [Compound 8, 1-[3-(trifluoromethyl)phenyl]-3-[4-(trifluoromethyl)phenyl]thiourea] | 7.6 ± 1.75 µM | 6.9 ± 1.64 µM | 54.8 ± 0.24 µM | 41.3 ± 0.17 µM | 1.0 ± 0.20 × 10^5 | 55 ± 1.11% | 2.1 ± 0.12 × 10^5 | 82 ± 1.10% | ≤ 26% | 70.1% | – | – | – | 38% | 45% | 18%
